Measured values reported in ChEMBL document CHEMBL3351981, “Eleganketal A, a highly oxygenated dibenzospiroketal from the marine-derived fungus Spicaria elegans KLA03” (J Nat Prod, 2014).

What was measured:
[1] = system: K562; assay: Cytotoxicity against human K562 cells; format: functional, cell-based
[2] = Cytotoxicity against human HL60 cells; format: functional, cell-based; conditions: HL-60
[3] = system: Influenza A virus; assay: Antiviral activity against influenza A virus (A/Puerto Rico/8/34(H1N1)) infected in MDCK cells assessed as inhibition of virus-induced cytopathic effect after 48 hrs by crystal violet staining assay; format: functional, organism-based; conditions: A/Puerto Rico/8/1934(H1N1)

SMILES: COc1c(C)c2c(c(OC)c1OC)C(=O)[C@]1(OC2)OCc2c(C)c(OC)c(OC)c(OC)c21
- IC50 [1]: > 50 µM
- IC50 [2]: > 50 µM

SMILES: COc1c(C)c2c(c(OC)c1OC)C(=O)[C@@]1(OC2)OCc2c(C)c(OC)c(OC)c(OC)c21
- IC50 [3]: 149 µM
- IC50 [1]: > 50 µM
- IC50 [2]: > 50 µM

SMILES: COc1c(C)c2c(c(OC)c1OC)C(=O)C1(OC2)OCc2c(C)c(OC)c(OC)c(OC)c21 (racemic)
- IC50 [1]: > 50 µM
- IC50 [2]: > 50 µM

SMILES: NC(=O)c1ncn([C@@H]2O[C@H](CO)[C@@H](O)[C@H]2O)n1 [RIBAVIRIN]
- IC50 [3]: 101 µM
